Results on one molecule are retold here after US20230305022A1, “Biomarkers in Primary Biliary Cholangitis” (University of Newcastle upon Tyne, priority 2020, published 2023).

The subject of the assay is Ep-CAM. Kind of assay: Discovery serum proteomics (Olink), UDCA-treated vs treatment-naïve PBC patients. The class given is in vivo, human. Conditions: serum NPX, UDCA 13-15 mg/kg/day for >12 months (n=416) vs treatment-naïve (n=68). The procedure:
UDCA-Treated PBC: These were PBC patients who had been taking UDCA at a therapeutic dose (13-15 mg/kg/day) for greater than 12 months. Clinical parameters, including serum biochemistry were available both pre-treatment and after 12 months of UDCA therapy. This allowed all UDCA-treated patients to be assigned to responder and non-responder groups using current standard criteria including Paris 1 (Alanine Transaminase (ALT)>2× upper limit of normal [ULN], Alkaline Phosphatase (ALP)>3×ULN, Bilirubin>1×ULN) (Corpechot et al., 2008), Paris 2 (ALP and ALT both >1.5×ULN)(Corpechot et al., 2011) and POISE (ALP <1.67×ULN and bilirubin <1×ULN) (Nevens et al., 2016). UK-PBC risk score 10-year predicted survival was also calculated for UDCA-treated patients after therapy. Patients taking fibrates and or OCA were not included in the current study. […]
Blood was collected under the approval of the Human Tissue Authority (HTA) by the UK-PBC tissue Bioresource with written informed patient consent obtained in accordance with research and ethics committee (REC) approval (14/NW/1146). […] 4 μl serum was analysed for 368 analytes from 4 distinct panels including Cardiovascular II &Ill, Inflammation and Oncology II (https://www.olink.com/). […] In turn, this was amplified by microfluidic quantitative PCR with normalised protein expression (NPX) data generated by a ΔΔct calculation method. […]

Turning to `C[C@H](CCC(=O)O)[C@H]1CC[C@H]2[C@@H]3[C@@H](O)C[C@@H]4C[C@H](O)CC[C@]4(C)[C@H]3CC[C@]12C` [UDCA, Ursodeoxycholic acid], the “log Fold Change of serum protein, UDCA Tx vs Naïve Tx” value is listed as −0.84.
